{
  "source": "the CheMixHub ionic liquid set",
  "test": "xn = mol fraction of the nth substance listed",
  "details": "100 kPa",
  "note": "± gives the uncertainty stated by the source.",
  "data": [
    {"smiles": "CCCCCCCC[n+]1ccccc1.[Br-]", "note": "+ CC(C)C[C@H](NC(=O)CN)C(=O)O + O", "values": [
      {"measurement": "electrical conductivity", "setting": "298.15 K, x2 = 0.0008991, x1 = 0.001214", "value": "0.48 ± 0.029", "unit": "S/m"},
      {"measurement": "electrical conductivity", "setting": "298.15 K, x2 = 0.0008996, x1 = 0.0007137", "value": "0.314 ± 0.019", "unit": "S/m"},
      {"measurement": "electrical conductivity", "setting": "298.15 K, x2 = 0.001788, x1 = 0.005807", "value": "1.46 ± 0.088", "unit": "S/m"},
      {"measurement": "electrical conductivity", "setting": "298.15 K, x2 = 0.001789, x1 = 0.005198", "value": "1.36 ± 0.082", "unit": "S/m"},
      {"measurement": "electrical conductivity", "setting": "298.15 K, x2 = 0.001789, x1 = 0.005513", "value": "1.41 ± 0.085", "unit": "S/m"},
      {"measurement": "electrical conductivity", "setting": "298.15 K, x2 = 0.00179, x1 = 0.004869", "value": "1.31 ± 0.079", "unit": "S/m"},
      {"measurement": "electrical conductivity", "setting": "298.15 K, x2 = 0.001791, x1 = 0.004088", "value": "1.17 ± 0.07", "unit": "S/m"},
      {"measurement": "electrical conductivity", "setting": "298.15 K, x2 = 0.001791, x1 = 0.004501", "value": "1.25 ± 0.075", "unit": "S/m"},
      {"measurement": "electrical conductivity", "setting": "298.15 K, x2 = 0.001792, x1 = 0.003637", "value": "1.09 ± 0.065", "unit": "S/m"},
      {"measurement": "electrical conductivity", "setting": "298.15 K, x2 = 0.001793, x1 = 0.003149", "value": "0.978 ± 0.059", "unit": "S/m"},
      {"measurement": "electrical conductivity", "setting": "298.15 K, x2 = 0.001794, x1 = 0.002603", "value": "0.849 ± 0.051", "unit": "S/m"},
      {"measurement": "electrical conductivity", "setting": "298.15 K, x2 = 0.001795, x1 = 0.002003", "value": "0.689 ± 0.041", "unit": "S/m"},
      {"measurement": "electrical conductivity", "setting": "298.15 K, x2 = 0.001796, x1 = 0.001632", "value": "0.585 ± 0.035", "unit": "S/m"},
      {"measurement": "electrical conductivity", "setting": "298.15 K, x2 = 0.001797, x1 = 0.0008258", "value": "0.341 ± 0.021", "unit": "S/m"},
      {"measurement": "electrical conductivity", "setting": "298.15 K, x2 = 0.001797, x1 = 0.001246", "value": "0.469 ± 0.028", "unit": "S/m"},
      {"measurement": "electrical conductivity", "setting": "303.15 K, x2 = 0.0008948, x1 = 0.005952", "value": "1.67 ± 0.1", "unit": "S/m"},
      {"measurement": "electrical conductivity", "setting": "303.15 K, x2 = 0.0008949, x1 = 0.005839", "value": "1.65 ± 0.099", "unit": "S/m"},
      {"measurement": "electrical conductivity", "setting": "303.15 K, x2 = 0.0008952, x1 = 0.00555", "value": "1.6 ± 0.096", "unit": "S/m"},
      {"measurement": "electrical conductivity", "setting": "303.15 K, x2 = 0.0008955, x1 = 0.005219", "value": "1.54 ± 0.093", "unit": "S/m"},
      {"measurement": "electrical conductivity", "setting": "303.15 K, x2 = 0.0008958, x1 = 0.00487", "value": "1.49 ± 0.089", "unit": "S/m"},
      {"measurement": "electrical conductivity", "setting": "303.15 K, x2 = 0.0008961, x1 = 0.004507", "value": "1.43 ± 0.086", "unit": "S/m"},
      {"measurement": "electrical conductivity", "setting": "303.15 K, x2 = 0.0008965, x1 = 0.004087", "value": "1.34 ± 0.08", "unit": "S/m"},
      {"measurement": "electrical conductivity", "setting": "303.15 K, x2 = 0.0008969, x1 = 0.003621", "value": "1.24 ± 0.074", "unit": "S/m"},
      {"measurement": "electrical conductivity", "setting": "303.15 K, x2 = 0.0008973, x1 = 0.003172", "value": "1.12 ± 0.067", "unit": "S/m"},
      {"measurement": "electrical conductivity", "setting": "303.15 K, x2 = 0.0008978, x1 = 0.002616", "value": "0.97 ± 0.058", "unit": "S/m"},
      {"measurement": "electrical conductivity", "setting": "303.15 K, x2 = 0.0008984, x1 = 0.001999", "value": "0.789 ± 0.047", "unit": "S/m"},
      {"measurement": "electrical conductivity", "setting": "303.15 K, x2 = 0.0008987, x1 = 0.001608", "value": "0.66 ± 0.04", "unit": "S/m"},
      {"measurement": "electrical conductivity", "setting": "303.15 K, x2 = 0.0008991, x1 = 0.001214", "value": "0.531 ± 0.032", "unit": "S/m"},
      {"measurement": "electrical conductivity", "setting": "303.15 K, x2 = 0.0008996, x1 = 0.0007137", "value": "0.347 ± 0.021", "unit": "S/m"},
      {"measurement": "electrical conductivity", "setting": "303.15 K, x2 = 0.001789, x1 = 0.005196", "value": "1.52 ± 0.091", "unit": "S/m"},
      {"measurement": "electrical conductivity", "setting": "303.15 K, x2 = 0.001789, x1 = 0.005509", "value": "1.58 ± 0.095", "unit": "S/m"},
      {"measurement": "electrical conductivity", "setting": "303.15 K, x2 = 0.00179, x1 = 0.004867", "value": "1.46 ± 0.088", "unit": "S/m"},
      {"measurement": "electrical conductivity", "setting": "303.15 K, x2 = 0.001791, x1 = 0.004088", "value": "1.31 ± 0.079", "unit": "S/m"},
      {"measurement": "electrical conductivity", "setting": "303.15 K, x2 = 0.001791, x1 = 0.004501", "value": "1.4 ± 0.084", "unit": "S/m"},
      {"measurement": "electrical conductivity", "setting": "303.15 K, x2 = 0.001792, x1 = 0.003637", "value": "1.21 ± 0.073", "unit": "S/m"},
      {"measurement": "electrical conductivity", "setting": "303.15 K, x2 = 0.001793, x1 = 0.003148", "value": "1.09 ± 0.065", "unit": "S/m"},
      {"measurement": "electrical conductivity", "setting": "303.15 K, x2 = 0.001794, x1 = 0.002601", "value": "0.944 ± 0.057", "unit": "S/m"},
      {"measurement": "electrical conductivity", "setting": "303.15 K, x2 = 0.001795, x1 = 0.002003", "value": "0.768 ± 0.046", "unit": "S/m"},
      {"measurement": "electrical conductivity", "setting": "303.15 K, x2 = 0.001796, x1 = 0.001632", "value": "0.65 ± 0.039", "unit": "S/m"},
      {"measurement": "electrical conductivity", "setting": "303.15 K, x2 = 0.001797, x1 = 0.0008258", "value": "0.377 ± 0.023", "unit": "S/m"},
      {"measurement": "electrical conductivity", "setting": "303.15 K, x2 = 0.001797, x1 = 0.001246", "value": "0.521 ± 0.031", "unit": "S/m"},
      {"measurement": "electrical conductivity", "setting": "308.15 K, x2 = 0.0008948, x1 = 0.005949", "value": "1.85 ± 0.11", "unit": "S/m"},
      {"measurement": "electrical conductivity", "setting": "308.15 K, x2 = 0.0008949, x1 = 0.005837", "value": "1.83 ± 0.11", "unit": "S/m"},
      {"measurement": "electrical conductivity", "setting": "308.15 K, x2 = 0.0008952, x1 = 0.005548", "value": "1.78 ± 0.11", "unit": "S/m"},
      {"measurement": "electrical conductivity", "setting": "308.15 K, x2 = 0.0008955, x1 = 0.005217", "value": "1.71 ± 0.1", "unit": "S/m"},
      {"measurement": "electrical conductivity", "setting": "308.15 K, x2 = 0.0008958, x1 = 0.004868", "value": "1.65 ± 0.099", "unit": "S/m"},
      {"measurement": "electrical conductivity", "setting": "308.15 K, x2 = 0.0008961, x1 = 0.004505", "value": "1.57 ± 0.094", "unit": "S/m"},
      {"measurement": "electrical conductivity", "setting": "308.15 K, x2 = 0.0008965, x1 = 0.004085", "value": "1.49 ± 0.089", "unit": "S/m"},
      {"measurement": "electrical conductivity", "setting": "308.15 K, x2 = 0.0008969, x1 = 0.003621", "value": "1.36 ± 0.082", "unit": "S/m"},
      {"measurement": "electrical conductivity", "setting": "308.15 K, x2 = 0.0008973, x1 = 0.003172", "value": "1.23 ± 0.074", "unit": "S/m"},
      {"measurement": "electrical conductivity", "setting": "308.15 K, x2 = 0.0008978, x1 = 0.002614", "value": "1.06 ± 0.064", "unit": "S/m"},
      {"measurement": "electrical conductivity", "setting": "308.15 K, x2 = 0.0008984, x1 = 0.001999", "value": "0.852 ± 0.051", "unit": "S/m"},
      {"measurement": "electrical conductivity", "setting": "308.15 K, x2 = 0.0008987, x1 = 0.001608", "value": "0.718 ± 0.043", "unit": "S/m"},
      {"measurement": "electrical conductivity", "setting": "308.15 K, x2 = 0.0008991, x1 = 0.001214", "value": "0.577 ± 0.035", "unit": "S/m"},
      {"measurement": "electrical conductivity", "setting": "308.15 K, x2 = 0.0008996, x1 = 0.0007137", "value": "0.379 ± 0.023", "unit": "S/m"},
      {"measurement": "electrical conductivity", "setting": "308.15 K, x2 = 0.001789, x1 = 0.005194", "value": "1.69 ± 0.1", "unit": "S/m"},
      {"measurement": "electrical conductivity", "setting": "308.15 K, x2 = 0.001789, x1 = 0.005508", "value": "1.75 ± 0.1", "unit": "S/m"},
      {"measurement": "electrical conductivity", "setting": "308.15 K, x2 = 0.00179, x1 = 0.004866", "value": "1.63 ± 0.098", "unit": "S/m"},
      {"measurement": "electrical conductivity", "setting": "308.15 K, x2 = 0.001791, x1 = 0.004086", "value": "1.46 ± 0.088", "unit": "S/m"},
      {"measurement": "electrical conductivity", "setting": "308.15 K, x2 = 0.001791, x1 = 0.004499", "value": "1.55 ± 0.093", "unit": "S/m"},
      {"measurement": "electrical conductivity", "setting": "308.15 K, x2 = 0.001792, x1 = 0.003635", "value": "1.33 ± 0.08", "unit": "S/m"},
      {"measurement": "electrical conductivity", "setting": "308.15 K, x2 = 0.001793, x1 = 0.003148", "value": "1.21 ± 0.072", "unit": "S/m"},
      {"measurement": "electrical conductivity", "setting": "308.15 K, x2 = 0.001794, x1 = 0.002601", "value": "1.04 ± 0.062", "unit": "S/m"},
      {"measurement": "electrical conductivity", "setting": "308.15 K, x2 = 0.001795, x1 = 0.002003", "value": "0.843 ± 0.051", "unit": "S/m"},
      {"measurement": "electrical conductivity", "setting": "308.15 K, x2 = 0.001796, x1 = 0.00163", "value": "0.713 ± 0.043", "unit": "S/m"},
      {"measurement": "electrical conductivity", "setting": "308.15 K, x2 = 0.001797, x1 = 0.0008258", "value": "0.415 ± 0.025", "unit": "S/m"},
      {"measurement": "electrical conductivity", "setting": "308.15 K, x2 = 0.001797, x1 = 0.001246", "value": "0.576 ± 0.035", "unit": "S/m"}
    ]}
  ]
}
